The text below walks through data of PMC6327040, “A novel scaffold for EGFR inhibition: Introducing N-(3-(3-phenylureido)quinoxalin-6-yl) acrylamide derivatives” (Scientific Reports, 2019).

For one series, the target named is EGFRL858R (Homo sapiens, UniProt P00533, L858R). Briefly: HTRF KinEASE-TK biochemical assay (TR-FRET), EGFR-L858R. As to conditions: for inhibitory activity on EGFRL858R (in words): enzymatic in vitro determination.
Another series addresses EGFRwt (Homo sapiens, UniProt P00533). Kind of series: HTRF KinEASE-TK biochemical assay (TR-FRET), EGFRwt. The settings on record: for inhibitory activity on EGFRwt (in words): enzymatic in vitro determination.
The target in another series is EGFRL858R/T790M (Homo sapiens, UniProt P00533, L858R/T790M). Kind of series: HTRF KinEASE-TK biochemical assay (TR-FRET), EGFR-L858R/T790M. As to conditions: for inhibitory activity on EGFRL858R/T790M (in words): enzymatic in vitro determination.
EGFRL858R/T790M, sequence (P00533 25-1210 T790M/L858R): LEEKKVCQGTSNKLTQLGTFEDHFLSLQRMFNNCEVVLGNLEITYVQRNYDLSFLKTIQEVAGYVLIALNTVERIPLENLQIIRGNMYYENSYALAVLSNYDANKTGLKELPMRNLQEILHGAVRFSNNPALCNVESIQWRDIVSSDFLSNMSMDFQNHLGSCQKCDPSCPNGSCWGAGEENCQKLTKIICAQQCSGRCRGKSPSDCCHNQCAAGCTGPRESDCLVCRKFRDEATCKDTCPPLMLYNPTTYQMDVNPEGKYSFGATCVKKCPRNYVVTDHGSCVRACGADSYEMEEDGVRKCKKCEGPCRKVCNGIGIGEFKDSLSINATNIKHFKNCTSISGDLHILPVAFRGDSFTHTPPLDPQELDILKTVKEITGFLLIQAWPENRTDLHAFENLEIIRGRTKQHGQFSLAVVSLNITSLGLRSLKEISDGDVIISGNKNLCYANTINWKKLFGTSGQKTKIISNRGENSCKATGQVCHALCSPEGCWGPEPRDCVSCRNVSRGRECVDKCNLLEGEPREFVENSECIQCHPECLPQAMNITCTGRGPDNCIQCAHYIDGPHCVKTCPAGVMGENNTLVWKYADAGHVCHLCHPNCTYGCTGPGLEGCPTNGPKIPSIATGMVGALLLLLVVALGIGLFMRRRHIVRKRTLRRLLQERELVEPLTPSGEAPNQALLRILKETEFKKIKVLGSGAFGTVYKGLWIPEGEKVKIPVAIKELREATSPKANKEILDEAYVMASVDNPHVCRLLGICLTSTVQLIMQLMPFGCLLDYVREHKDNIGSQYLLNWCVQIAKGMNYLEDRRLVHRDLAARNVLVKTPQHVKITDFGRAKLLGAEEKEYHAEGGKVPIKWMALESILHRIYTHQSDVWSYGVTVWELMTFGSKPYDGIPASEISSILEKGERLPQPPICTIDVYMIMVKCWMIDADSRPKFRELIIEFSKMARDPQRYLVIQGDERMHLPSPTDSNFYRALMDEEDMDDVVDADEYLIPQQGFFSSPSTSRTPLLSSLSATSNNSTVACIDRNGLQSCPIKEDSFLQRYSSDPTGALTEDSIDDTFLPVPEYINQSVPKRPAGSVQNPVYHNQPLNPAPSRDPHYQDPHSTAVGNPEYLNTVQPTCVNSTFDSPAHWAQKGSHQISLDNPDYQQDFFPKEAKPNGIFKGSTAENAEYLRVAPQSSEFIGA
Series [1] deals with patient-derived tumor cell panel. Kind of series: Patient-derived tumor cell panel screening (Oncotest). As to conditions: single screening concentration of 10 μM. It is filed as cell-based. How it is done:
Based on this premise, the inhibitory activity of compounds 7a-m towards a patient-derived tumor cell panel[49] was evaluated, using a single screening concentration of 10 μM. […] In fact, it is worth mentioning that, although the data observed in a cellular assay have no direct correlation to EGFR enzymatic tests, this phenomenon is not unusual and is related to the nature of the assays itself. In enzymatic assays there is no influence of membrane permeability issues, while in cell viability assays compounds must penetrate the cell membrane and resist the cellular environment for long enough for the ligand-receptor interaction to occur and to trigger the biological activity.

Structures are written as SMILES.

For orientation: IC50 means the concentration that gives 50% inhibition. High values mean lower potency, low ones higher potency. As a reminder, the melting point is the temperature, or range, at which the solid turns liquid.

EGFRwt, sequence (P00533 25-1210): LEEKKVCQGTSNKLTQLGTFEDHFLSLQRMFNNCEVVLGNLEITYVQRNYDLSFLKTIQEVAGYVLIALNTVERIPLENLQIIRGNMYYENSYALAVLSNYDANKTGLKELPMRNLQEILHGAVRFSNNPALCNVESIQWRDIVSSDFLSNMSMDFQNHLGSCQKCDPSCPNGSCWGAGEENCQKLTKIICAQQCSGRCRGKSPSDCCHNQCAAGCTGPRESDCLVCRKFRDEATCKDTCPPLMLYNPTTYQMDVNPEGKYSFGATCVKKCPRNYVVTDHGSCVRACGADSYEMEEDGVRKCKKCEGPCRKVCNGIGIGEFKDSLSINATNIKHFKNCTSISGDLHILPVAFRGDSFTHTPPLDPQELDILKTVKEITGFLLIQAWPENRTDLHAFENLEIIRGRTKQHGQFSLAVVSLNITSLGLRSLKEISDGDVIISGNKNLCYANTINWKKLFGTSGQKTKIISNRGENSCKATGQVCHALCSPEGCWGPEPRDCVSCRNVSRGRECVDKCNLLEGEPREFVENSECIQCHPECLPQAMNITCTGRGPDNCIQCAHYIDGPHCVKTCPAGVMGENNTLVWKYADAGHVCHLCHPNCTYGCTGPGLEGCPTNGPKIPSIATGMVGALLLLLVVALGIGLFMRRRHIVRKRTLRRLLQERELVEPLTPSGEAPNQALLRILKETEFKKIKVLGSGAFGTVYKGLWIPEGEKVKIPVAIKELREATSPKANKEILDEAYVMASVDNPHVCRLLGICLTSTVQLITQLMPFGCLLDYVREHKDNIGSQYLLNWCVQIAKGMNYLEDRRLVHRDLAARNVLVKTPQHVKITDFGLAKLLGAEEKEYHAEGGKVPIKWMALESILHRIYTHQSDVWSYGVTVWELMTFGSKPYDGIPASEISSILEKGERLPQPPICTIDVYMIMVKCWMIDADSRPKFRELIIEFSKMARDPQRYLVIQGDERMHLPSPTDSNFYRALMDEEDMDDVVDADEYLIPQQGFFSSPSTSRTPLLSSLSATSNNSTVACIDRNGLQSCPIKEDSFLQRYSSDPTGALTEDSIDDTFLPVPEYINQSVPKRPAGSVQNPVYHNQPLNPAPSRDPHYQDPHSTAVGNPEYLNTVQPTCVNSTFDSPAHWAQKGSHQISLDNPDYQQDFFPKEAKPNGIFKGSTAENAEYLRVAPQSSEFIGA
EGFRL858R, sequence (P00533 25-1210 L858R): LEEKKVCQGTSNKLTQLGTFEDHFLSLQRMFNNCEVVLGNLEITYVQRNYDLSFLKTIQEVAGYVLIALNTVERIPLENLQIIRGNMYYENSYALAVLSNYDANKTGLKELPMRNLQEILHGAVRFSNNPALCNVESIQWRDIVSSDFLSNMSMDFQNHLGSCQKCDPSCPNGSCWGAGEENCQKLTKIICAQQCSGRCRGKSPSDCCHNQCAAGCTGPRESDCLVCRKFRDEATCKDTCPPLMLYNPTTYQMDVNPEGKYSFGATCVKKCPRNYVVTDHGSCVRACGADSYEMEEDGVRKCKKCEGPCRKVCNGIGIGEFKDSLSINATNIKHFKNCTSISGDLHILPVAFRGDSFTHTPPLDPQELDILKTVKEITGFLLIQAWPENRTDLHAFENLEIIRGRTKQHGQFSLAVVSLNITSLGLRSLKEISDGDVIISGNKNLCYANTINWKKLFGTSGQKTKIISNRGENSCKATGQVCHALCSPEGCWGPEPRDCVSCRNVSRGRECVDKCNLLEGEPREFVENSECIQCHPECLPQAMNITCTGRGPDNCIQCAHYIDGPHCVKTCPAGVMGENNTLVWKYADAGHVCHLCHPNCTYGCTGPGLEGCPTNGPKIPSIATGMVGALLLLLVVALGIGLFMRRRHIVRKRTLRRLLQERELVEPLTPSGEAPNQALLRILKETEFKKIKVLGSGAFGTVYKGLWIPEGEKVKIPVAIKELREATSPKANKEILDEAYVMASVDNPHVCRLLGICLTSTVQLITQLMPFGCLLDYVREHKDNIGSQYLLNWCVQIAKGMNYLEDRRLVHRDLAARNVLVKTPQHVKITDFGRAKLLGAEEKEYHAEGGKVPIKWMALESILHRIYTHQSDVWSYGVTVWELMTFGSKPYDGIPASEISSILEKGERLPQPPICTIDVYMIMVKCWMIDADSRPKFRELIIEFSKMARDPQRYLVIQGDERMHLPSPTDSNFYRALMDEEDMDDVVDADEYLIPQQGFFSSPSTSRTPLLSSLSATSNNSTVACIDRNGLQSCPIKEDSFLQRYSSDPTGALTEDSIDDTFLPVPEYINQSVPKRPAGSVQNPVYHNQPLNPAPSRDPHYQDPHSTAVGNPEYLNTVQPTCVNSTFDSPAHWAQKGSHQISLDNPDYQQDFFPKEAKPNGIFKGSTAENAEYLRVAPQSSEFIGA
Experimental for EGFRL858R/T790M: (§1) An artificial substrate peptide (TK-substrate from Cisbio) was phosphorylated by EGFR. After completion of the reaction (reaction times: 25 min for wild-type, 15 min for L858R, 20 min for T790M/L858R), the reaction was stopped by addition of a buffer containing EDTA as well as, an anti-phosphotyrosine antibody labeled with europium cryptate and streptavidin labeled with the fluorophore XL665. FRET between europium cryptate and XL665 was measured after an additional hour of incubation to quantify the phosphorylation of the substrate peptide. […] Kinase and inhibitor were preincubated for 30 min (EGFR-wt) and 1 h (EGFR-L858R and EGFR-L858R/T790M) before the reaction was started by addition of ATP and substrate peptide. An EnVision multimode plate reader (Perkin Elmer) was used to measure the fluorescence of the samples at 620 nm (Eu-labeled antibody) and 665 nm (XL665 labeled streptavidin) 50 μs after excitation at 320 nm. The quotient of both intensities for reactions made with eight different inhibitor concentrations was then analyzed using the Quattro Software Suite for IC50-determination. Each reaction was performed in duplicate, and at least three independent determinations of each IC50 were made.
Experimental for EGFRwt: as §1

The molecule `C=CC(=O)Nc1ccc2ncc(NC(=O)Nc3ccc(Cl)c(C(F)(F)F)c3)nc2c1` [Compound 7a, N-(3-(3-(4-chloro-3-(trifluoromethyl)phenyl)ureido)quinoxalin-6-yl) acrylamide] came in with a melting point of 272 to 274 °C. Also, the IC50 at EGFRL858R was > 10 µM. Also, on EGFRwt, the half-inhibitory concentration (IC50) is > 10 µM. The IC50 against EGFRL858R/T790M is > 10 µM.
The molecule `C=CC(=O)Nc1ccc2ncc(NC(=O)Nc3ccc(F)c(Cl)c3)nc2c1` [Compound 7m, N-(3-(3-(3-chloro-4-fluorophenyl)ureido)quinoxalin-6-yl) acrylamide] yielded a melting point of 259 to 262 °C. Further, the IC50 against EGFRL858R is > 10 µM. For the same molecule, the half-maximal inhibitory concentration (IC50) against EGFRwt was > 10 µM. Further, the 50% inhibitory concentration (IC50) at EGFRL858R/T790M was > 10 µM.
`N#CCC(=O)Nc1ccc2ncc(NC(=O)Nc3ccccc3)nc2c1` [Compound 7k, 2-cyano-N-(3-(3-phenylureido)quinoxalin-6-yl)acetamide] had a melting point of 238 to 241 °C. Further, on EGFRL858R, inhibition was half-maximal at 0.445 ± 0.105 µM (IC50). The midpoint of inhibition at EGFRwt, the IC50, lay at 3.12 ± 0.787 µM. In addition, on EGFRL858R/T790M, the half-maximal inhibitory concentration (IC50) came to 6.29 ± 2.79 µM.
`C/C=C/C(=O)Nc1ccc2ncc(NC(=O)Nc3ccccc3)nc2c1` [Compound 7i, (E)-N-(3-(3-phenylureido)quinoxalin-6-yl)but-2-enamide] displayed a melting point of 273 to 276 °C. On EGFRL858R, this molecule had an IC50 of 5.58 ± 4.16 µM. Besides, on EGFRwt, the IC50 was > 10 µM. On EGFRL858R/T790M, the IC50 was > 10 µM.
Turning to `CN(C)C/C=C/C(=O)Nc1ccc2ncc(NC(=O)Nc3ccccc3)nc2c1` [Compound 7l, (E)-4-(dimethylamino)-N-(3-(3-phenylureido)quinoxalin-6-yl)but-2-enamide], the IC50 at EGFRL858R was 0.032 ± 0.014 µM; against EGFRwt, 0.101 ± 0.012 µM; at EGFRL858R/T790M it was 0.132 ± 0.049 µM. In addition, the “tumor cell lines' growth inhibition / cytotoxic activity (in words)” value in series [1] is on record as “did not inhibit the Oncotest® tumor cell lines’ growth in a significant manner”.
Turning to `C=CC(=O)Nc1ccc2ncc(NC(=O)Nc3cccc(C(F)(F)F)c3)nc2c1` [Compound 7f, N-(3-(3-(3-(trifluoromethyl)phenyl)ureido)quinoxalin-6-yl)acrylamide], the melting point is 268 to 271 °C. In addition, on EGFRL858R, the IC50 was found to be 2.16 ± 1.62 µM and the “inhibitory activity on EGFRL858R (in words)” value was “weak activity”. In addition, on EGFRwt, the 50% inhibitory concentration (IC50) was 2.5 ± 0.735 µM and the “inhibitory activity on EGFRwt (in words)” value is “weak activity”. For the same molecule, on EGFRL858R/T790M, the IC50 is > 10 µM and the “inhibitory activity on EGFRL858R/T790M (in words)” value is reported as “no inhibitory activity”.
`N#CCC(=O)Nc1ccc2ncc(NC(=O)Nc3ccc(Cl)c(C(F)(F)F)c3)nc2c1` [Compound 7d, N-(3-(3-(4-chloro-3-(trifluoromethyl)phenyl)ureido)quinoxalin-6-yl)-2-cyanoacetamide] had a melting point of 243 to 246 °C. For the same molecule, at EGFRL858R, the IC50 is > 10 µM. In addition, the IC50 at EGFRwt was > 10 µM. On EGFRL858R/T790M, 9.87 ± 0.265 µM corresponded to half-maximal inhibition (IC50).
In turn, `C/C=C/C(=O)Nc1ccc2ncc(NC(=O)Nc3ccc(Cl)c(C(F)(F)F)c3)nc2c1` [Compound 7b, (E)-N-(3-(3-(4-chloro-3-(trifluoromethyl)phenyl)ureido)quinoxalin-6-yl)but-2-enamide] had a melting point of 277 to 280 °C. The IC50 against EGFRL858R is > 10 µM. The half-maximal inhibitory concentration (IC50) against EGFRwt was > 10 µM. The concentration for half-maximal inhibition (IC50) against EGFRL858R/T790M is > 10 µM.
In turn, `O=C(CCl)Nc1ccc2ncc(NC(=O)Nc3cccc(C(F)(F)F)c3)nc2c1` [Compound 7g, 2-chloro-N-(3-(3-(3-(trifluoromethyl)phenyl)ureido)quinoxalin-6-yl)acetamide] yielded a melting point of 260 to 263 °C. On EGFRL858R, the 50% inhibitory concentration (IC50) worked out at 2.1 ± 0.505 µM and the “inhibitory activity on EGFRL858R (in words)” value is “weak activity”. Besides, at EGFRwt, the IC50 came out at 0.179 ± 0.061 µM and the “inhibitory activity on EGFRwt (in words)” value was “weak activity”. On EGFRL858R/T790M, the IC50 was found to be 9.83 ± 0.297 µM and the “inhibitory activity on EGFRL858R/T790M (in words)” value is “no inhibitory activity”.
In turn, `O=C(CCl)Nc1ccc2ncc(NC(=O)Nc3ccccc3)nc2c1` [Compound 7j, 2-chloro-N-(3-(3-phenylureido)quinoxalin-6-yl)acetamide] returned a melting point of 249 to 252 °C. The molecule further had a concentration for half-maximal inhibition (IC50) on EGFRL858R of 0.27 ± 0.202 µM. The half-maximal inhibitory concentration (IC50) on EGFRwt is 0.123 ± 0.134 µM. In addition, the half-maximal inhibitory concentration (IC50) against EGFRL858R/T790M is 0.823 ± 0.613 µM.
On to `O=C(CCl)Nc1ccc2ncc(NC(=O)Nc3ccc(Cl)c(C(F)(F)F)c3)nc2c1` [Compound 7c, 2-chloro-N-(3-(3-(4-chloro-3-(trifluoromethyl)phenyl)ureido)quinoxalin-6-yl)acetamide], for which the melting point was in the range of 253 to 255 °C. In addition, the 50% inhibitory concentration (IC50) against EGFRL858R was 3.24 ± 1.26 µM. In addition, at EGFRwt, the half-inhibitory concentration (IC50) is > 10 µM. At EGFRL858R/T790M, this molecule had an IC50 of 2.71 ± 0.412 µM.
Taken in the same sequence, the figures for `CN(C)C/C=C/C(=O)Nc1ccc2ncc(NC(=O)Nc3ccc(Cl)c(C(F)(F)F)c3)nc2c1` [Compound 7e, (E)-N-(3-(3-(4-chloro-3-(trifluoromethyl)phenyl)ureido)quinoxalin-6-yl)-4-(dimethylamino)but-2-enamide] were 217 to 220 °C, > 10 µM, > 10 µM and 6.14 ± 3.47 µM.
